Test results: patent publication US12187717B2, “Compound and use thereof in treating autoimmune diseases” (PARENCHYMA BIOTECH INC., priority 2022, dated 2025)

Assays:
[1] = system: IL-6; test: IL-6 production of A549 epithelial cells by IL-1β stimulation; type: cell-based, Human; settings: A549, 5 μM, 48 hours then IL-1β 24 hours, vs control
Method: In order to assess the inhibitory effects of production of IL-6 by the compounds of the present invention prepared as above, an IL-6 production test of epithelial cells by stimulation of IL-1β was performed.
After recovering A549 cells under culture in DMEM-fetal bovine serum (FBS) 10% medium and confirming that the survival rate is 97% or more through trypan blue staining, the recovered product was centrifuged at a speed of 1200 rpm for 5 minutes at room temperature, and the cells were prepared by resuspending them in DMEM-10% fetal bovine serum medium at 1×10^6 cells/3 ml. Thereafter, the cells were dispensed by 3 ml onto a 60 mm plate, and each dish was treated with 50 μl of Compounds 6, 9, 21, 32 and 39 at a concentration of 5 μM diluted in DMEM medium, and then cultured in a cell incubator (5% CO2 incubator) for 48 hours. Then, the cells were treated with 50 μl of human recombinant IL-1β at a concentration of 12.5 ng/ml diluted in DMEM medium, followed by culturing the same in a cell incubator (5% CO2 incubator) for 24 hours. As a control, 50 μl of 0.05% dimethylsulfoxide (DMSO)/DMEM medium was used for treatment.
(§1) The cultured cells were recovered to prepare an mRNA sample. […] From the separated RNA, cDNA was synthesized by reverse transcription, and the expression of CYP1A1 was confirmed through a real-time polymerase chain reaction (PCR) using iQ SYBR-Green Supermix (Bio-rad) in a CFX96 (Bio-rad) detection system. […] Herein, one (1) fold was set using the control.
(§2) The real-time polymerase chain reaction was performed under the conditions of 45 cycles at an annealing temperature of 58° C., wherein the following primer sequences were used.

[2] = system: Foxp3-expressing regulatory T cells (Treg); test: Production of Foxp3-expressing regulatory T cells from naive CD4 T cells (flow cytometry); type: cell-based, C57BL/6 mice; settings: 2.5 μM, 3 days, compared to Vehicle
Method: The spleen of C57BL/6 mice (8 to 12 weeks old, female) was excised, pulverized by adding RPMI medium, and then passed through a 40 μm cell strainer (BD Falcon), thereby obtaining a single cell suspension. The single cell suspension was centrifuged (1200 rpm, 5 minutes), and after discarding the supernatant, 1 ml of ACK lysis buffer was added, followed by stirring for 1 minute and then washing the same with RPMI medium. After the single cell suspension was centrifuged, T-cells were separated using a Mouse CD4 Naive T cell Enrichment Kit (Invitrogen). The separated T-cells were prepared by resuspending them in RPMI-fetal bovine serum (FBS) 10%+2-ME (mercaptoethanol) medium at 1×10^6/ml. For T-cell activation, 5 μg/ml anti-CD3 (eBioscience™) was dispensed by 100 μl onto a 96-well plate, reacted in a cell incubator (37° C., 5% CO2 incubator) for 4 hours, and washed with phosphate buffered saline to prepare the plate. The T-cells were dispensed by 200 μl onto the prepared plate, and each well was treated with 2 μg/ml of anti-CD28 (eBioscience™), 2 ng/ml of TGFβ-1 (R&D systems), and 100 U/ml of IL-2. Each 5 μl of Compounds 6 and 9 at a concentration of 2.5 μM diluted in RPMI-fetal bovine serum 10%+2-ME medium was used for treatment, followed by culturing the same in a cell incubator (37° C., 5% CO2 incubator) for 3 days. […]
In order to confirm the expression of Foxp3 protein, the recovered cells were placed in a 5 ml FACS tube (BD Falcon) and washed with 1 ml of phosphate buffered saline. […] The cells were washed twice with the Permeabilization buffer, suspended in 0.3 ml of FACS buffer, and measured by flow cytometry.
The promotion effects of Compound 6 and Comparative Example 1 on the production of “FoxP3-expressing regulatory T cells,” which play an important role in maintaining immune tolerance, were compared (FIG. 24). […] After 3 days, in order to confirm the effects of production of the regulatory T cells, the cultured cells were recovered and Foxp3 protein expression was measured in the same manner as in FIG. 4.

[3] = system: CYP1A1; test: Induction of CYP1A1 mRNA expression in HepG2 (real-time PCR); type: cell-based, Human; settings: HepG2, 1 μM, 24 hours, vs control (vehicle)
Method: In order to confirm target specificity of the compounds of an embodiment of the present invention prepared as above, it was confirmed whether the expression levels of CYP1A1 mRNA and CYP1A1 protein, which are AHR target genes, were increased.
After recovering HepG2 under culture in DMEM-fetal bovine serum (FBS) 10% medium and then confirming that the survival rate is 97% or more through trypan blue staining, the recovered product was centrifuged at a speed of 1200 rpm for 5 minutes at room temperature, and the cells were prepared by resuspending them in DMEM-fetal calf serum 10% medium at 3×10^5 cells/ml. Thereafter, the cells were dispensed onto a 60 mm dish by 3 ml, and each dish was treated with 50 μl of Compounds 6, 21, 32 and 39 at a concentration of 1 μM diluted in DMEM medium, and then cultured in a cell incubator (5% CO2 incubator) for 24 hours. As a control, 50 μl of 0.05% dimethylsulfoxide (DMSO)/DMEM medium was used for treatment.
as §1, §2

[4] = system: CYP1A1; test: Induction of CYP1A1 protein expression in HepG2 (7-ethoxyresorufin/resorufin); type: cell-based, Human; settings: HepG2, 1 μM, 24 hours, vs control (vehicle)
Method: After recovering HepG2 under culture in DMEM-fetal bovine serum (FBS) 10% medium and then confirming that the survival rate is 97% or more through trypan blue staining, the recovered product was centrifuged at a speed of 1200 rpm for 5 minutes at room temperature, and the cells were prepared by resuspending them in DMEM-fetal calf serum 10% medium at 1.5×10^5 cells/ml.
Thereafter, the cells were dispensed onto a 96-well plate by 200 μl, and each plate was treated with 3 μl of Compounds 6, 21, 32 and 39 at a concentration of 1 μM diluted in DMEM medium, and then cultured in a cell incubator (5% CO2 incubator) for 24 hours. As a control, 3 μl of 0.05% dimethylsulfoxide (DMSO)/DMEM medium was used for treatment.
After 24 hours, the medium of the plate was discarded, washed with dPBS, treated with 100 μl of 2 μM 7-ethoxyresorufin, and cultured in a cell incubator (5% CO2 incubator) for 30 minutes. After 30 minutes, each 75 μl of fluorescamine (150 μg/ml) was treated, then resorufine excitation was measured at 535 nm and emission at 590 nm. The standard curve was measured and used with 0 to 50 pmol of resorufin solution.
After measurement, all solutions were removed, followed by treating the same with 25 μl of 0.5 M sodium hydroxide (NaOH), the cells were scraped and reacted in a shaker at room temperature for 15 minutes.
After 15 minutes, protein was quantified using a Bradford method, and a value was obtained using a calculation formula (sample resorufin amount/sample protein amount), and then one (1) fold was set using the control.

[5] = molecular target: CYP2C9 (Homo sapiens, UniProt P11712); test: CYP isoenzyme activity; type: in vitro ADME; settings: 0.1 μM
[6] = molecular target: CYP2C19 (Homo sapiens, UniProt P33261); test: CYP isoenzyme activity; type: in vitro ADME; settings: 0.1 μM
[7] = molecular target: T1, CYP1A2 (Homo sapiens, UniProt P05177); test: CYP isoenzyme activity; type: in vitro ADME; settings: 0.1 μM
T1 sequence (P05177 1-516): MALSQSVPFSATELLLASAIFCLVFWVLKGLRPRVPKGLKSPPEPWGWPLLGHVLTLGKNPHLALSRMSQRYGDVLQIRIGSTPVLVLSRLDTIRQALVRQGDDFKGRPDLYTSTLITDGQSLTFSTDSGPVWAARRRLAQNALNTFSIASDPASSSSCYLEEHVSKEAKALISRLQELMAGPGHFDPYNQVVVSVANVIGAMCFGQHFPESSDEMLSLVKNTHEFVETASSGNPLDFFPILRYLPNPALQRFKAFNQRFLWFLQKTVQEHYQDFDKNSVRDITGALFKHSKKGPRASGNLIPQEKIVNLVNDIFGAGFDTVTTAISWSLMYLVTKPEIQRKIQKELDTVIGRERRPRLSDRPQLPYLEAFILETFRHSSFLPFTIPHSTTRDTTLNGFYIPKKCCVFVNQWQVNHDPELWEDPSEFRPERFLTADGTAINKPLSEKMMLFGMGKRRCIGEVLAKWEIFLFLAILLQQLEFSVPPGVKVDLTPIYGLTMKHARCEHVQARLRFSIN

Sequence of CYP2C9 (P11712 whole entry): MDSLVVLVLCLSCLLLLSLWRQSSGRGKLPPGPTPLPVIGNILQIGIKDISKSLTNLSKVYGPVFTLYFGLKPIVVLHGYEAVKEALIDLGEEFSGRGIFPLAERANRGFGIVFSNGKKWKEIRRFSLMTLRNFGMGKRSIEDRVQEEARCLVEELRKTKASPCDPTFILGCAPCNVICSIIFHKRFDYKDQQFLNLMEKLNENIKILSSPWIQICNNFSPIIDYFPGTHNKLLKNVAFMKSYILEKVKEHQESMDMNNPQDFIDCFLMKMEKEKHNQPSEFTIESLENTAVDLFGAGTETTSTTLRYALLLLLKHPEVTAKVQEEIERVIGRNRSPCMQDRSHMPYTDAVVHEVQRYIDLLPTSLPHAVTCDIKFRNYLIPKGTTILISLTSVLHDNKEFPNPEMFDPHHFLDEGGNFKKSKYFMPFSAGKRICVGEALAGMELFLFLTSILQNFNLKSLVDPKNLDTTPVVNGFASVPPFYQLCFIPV
Sequence of CYP2C19 (P33261 whole entry): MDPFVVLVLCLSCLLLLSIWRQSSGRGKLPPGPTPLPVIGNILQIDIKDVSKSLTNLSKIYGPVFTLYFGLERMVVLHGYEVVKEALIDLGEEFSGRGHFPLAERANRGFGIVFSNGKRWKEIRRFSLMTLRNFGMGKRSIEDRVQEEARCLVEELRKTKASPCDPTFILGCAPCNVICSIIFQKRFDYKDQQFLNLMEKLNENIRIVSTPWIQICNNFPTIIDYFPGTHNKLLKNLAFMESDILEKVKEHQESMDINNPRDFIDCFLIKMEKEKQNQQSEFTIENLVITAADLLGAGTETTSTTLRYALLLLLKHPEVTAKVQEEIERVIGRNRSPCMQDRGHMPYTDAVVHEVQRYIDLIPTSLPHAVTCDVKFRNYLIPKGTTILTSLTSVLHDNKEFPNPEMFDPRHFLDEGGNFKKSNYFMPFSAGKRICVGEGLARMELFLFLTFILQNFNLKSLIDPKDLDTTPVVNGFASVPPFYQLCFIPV

SMILES | IL-6 production of A549 by IL-1β stimulation [1] | production of Foxp3-expressing regulatory T cells [2] | CYP1A1 mRNA expression level [3] | CYP1A1 protein expression level [4] | CYP2C9 activity [5] | CYP2C19 activity [6] | CYP1A2 activity [7]
CN1CCN(c2ccc3nc(NC(=O)Cc4c[nH]c5ccc(Cl)cc45)sc3c2)CC1 [Compound 9, 2-(5-chloro-1H-indol-3-yl)-N-(6-(4-methylpiperazine-1-yl)benzo[d]thiazol-2-yl)acetamide] | significantly reduced | markedly increased | – | – | – | – | –
Cn1cc(CC(=O)Nc2nc3ccc(N4CCOCC4)cc3s2)c2cc(Cl)ccc21 [Compound 21, 2-(5-chloro-1-methyl-1H-indol-3-yl)-N-(6-morpholinobenzo[d]thiazol-2-yl)acetamide] | significantly reduced | – | significantly induced | significantly higher | – | – | –
O=C(Cc1c[nH]c2ccc(O)cc12)Nc1nc2ccc(N3CCOCC3)cc2s1 [Compound 32, 2-(5-hydroxy-1H-indol-3-yl)-N-(6-morpholinobenzo[d]thiazol-2-yl)acetamide] | significantly reduced | – | significantly induced | significantly higher | – | – | –
COc1ccc2[nH]cc(CC(=O)Nc3nc4ccc(N5CCOCC5)cc4s3)c2c1 [Compound 39, 2-(5-methoxy-1H-indol-3-yl)-N-(6-morpholinobenzo[d]thiazol-2-yl)acetamide] | significantly reduced | – | significantly induced | significantly higher | – | – | –
CC(=O)N1CCN(c2ccc(OCC3COC(Cn4ccnc4)(c4ccc(Cl)cc4Cl)O3)cc2)CC1 (centres unmarked) [Ketoconazole] | – | – | – | – | 98.6 % of Control Activity | 96.7 % of Control Activity | 95.4 % of Control Activity
